Data on 19 compounds can be found in patent US6689806B1, “Indolinone compounds as kinase inhibitors” (Sugen, Inc., priority 1999, dated 2004).

For one experiment, the target named is EGFR (Homo sapiens, UniProt P00533). Put plainly: Biochemical EGFR assay (ELISA). The arrangement: A431 cell lysate; endogenous in cells; host or cells: A431. The method, then:
This assay measures the in vitro kinase activity of EGFR using ELISA.
1. Coat Coming 96 well ELISA plates with 0.5 μg SUMOl in 100 μL PBS per well, store overnight at 4° C.
5. Dilute lysate in PBS (7 μg lysate/100 μL PBS).
(§1) 6. Add 100 μL of diluted lysate to each well. Shake at room temperature for 60 min.
8. Add 120 μL TBS to ELISA plate containing captured EGFR.
9. Dilute test compound 1:10 in TBS in 96-well polypropylene plates (ie. 10 μL compound+90 μL TBS).
10. Add 13.5 μL diluted test compound to ELISA plate.
13. After 5 minutes, stop reaction by adding 16.5 μL of 200 mM EDTA (pH 8.0) to each well, shaking continuously. After the EDTA has been added, shake for 1 mm.
(§2) 15. Add 100 μL anti-phosphotyrosine (1:3000 dilution in TBST) per well. Incubate 30-45 min. at room temperature, with shaking.
(§3) 17. Add 100 μL Biosource Goat anti-rabbit IgG peroxidase conjugate (1:2000 dilution in TBST) to each well. Incubate 30 min. at room temperature, with shaking.
(§4) 19. Add 100 μL of ABTS/H2O2 solution to each well.
22. Read assay on Dynatech MR7000 ELISA reader. Test Filter: 410 nM Reference Filter: 630 Nm.
(In general: An ELISA detects its analyte on a solid surface through an enzyme-linked reagent.)

A further experiment addresses PDGFR (Homo sapiens, UniProt P09619). Put plainly: Biochemical PDGFR assay (ELISA). The arrangement: expressed in transfected cells; host or cells: NIH 3T3. The method, then: This assay measures the in vitro kinase activity of PDGFR using ELISA.
6. PDGFR-β expressing NlH 3T3 cell lysate.
1. Coat Corning 96 well ELISA plates with 0.5 μg 28D4C10 in 100 μL PBS per well, store overnight at 4° C.
5. Dilute lysate in HNTG (10 μg lysate/100 μL HNTG)
as §1
8. Add 80 μL working kinase buffer mix to ELISA plate containing captured PDGFR.
9. Dilute test compound 1:10 in TBS in 96-well polypropylene plates (i.e., 10 μL compound+90 μL TBS).
10. Add 10 μL diluted test compound to ELISA plate.
11. Incubate for 30 minutes while shaking at room temperature.
12. Add 10 μL ATP directly to all wells except negative control well (final well volume should be approximately 100 μL with 20 μM ATP in each well.) Incubate 30 minutes while shaking.
13. After 30 minutes, stop reaction by adding 10 μL of 200 mM EDTA (pH 8.0) to each well.
as §2, §3, §4
22. Read assay on Dynatech MR7000 ELISA reader: test filter: 410 nM, reference filter: 630 nM.

The next experiment concerns the target T1, Her2 (Homo sapiens, UniProt P04626).
T1 construct: fused on or other part: P00533 (Epidermal growth factor receptor)
Put plainly: HER-2 ELISA: EGF receptor-HER2 chimeric receptor assay in whole cells (HER2 kinase). Type of experiment: cell-based. To be noted: NIH3T3 cells with EGFR/HER2 chimeric receptor, phosphotyrosine ELISA. On the procedure: Assay 1: EGF Receptor-HER2 Chimeric Receptor Assay In Whole Cells.
HER2 kinase activity in whole EGFR-NIH3T3 cells was measured as described below:
1. An NIH3T3 cell line overexpressing a chimeric receptor containing the EGFR extracellular domain and intracellular HER2 kinase domain can be used for this assay.
3. Resuspend cells in seeding medium (DMEM, 0.5% bovine serum), and count the cells using trypan blue. Viability above 90% is acceptable. Seed cells in DMEM medium (0.5% bovine serum) at a density of 10,000 cells per well, 100 μL per well, in a 96 well microtiter plate. Incubate seeded cells in 5% CO2 at 37° C. for about 40 hours.
1. Check seeded cells for contamination using an inverted microscope. Dilute drug stock (10 mg/mL in DMSO) 1:10 in DMEM medium, then transfer 5 μL to a TBST well for a final drug dilution of 1:200 and a final DMSO concentration of 1%. Control wells receive DMSO alone. Incubate in 5% CO2 at 37° C. for two hours.
2. Prepare EGF ligand: dilute stock EGF in DMEM so that upon transfer of 10 μL dilute EGF (1:12 dilution), 100 nM final concentration is attained.
4. After 120 minutes incubation with drug, add prepared […] ligand to cells, 10 μL per well, to a final concentration of 100 nM. Control wells receive DMEM alone. Incubate, shaking, at room temperature, for 5 minutes.
5. Remove drug, EGF, and DMEM. Wash cells twice with PBS. Transfer HNTG* to cells, 100 μL per well. Place on ice for 5 minutes. Meanwhile, remove blocking buffer from other ELISA plate and wash with TBST as described above.
6. With a pipette tip securely fitted to a micropipettor, scrape cells from plate and homogenize cell material by repeatedly aspirating and dispensing the HNTG* lysis buffer. Transfer lysate to a coated, blocked, and washed ELISA plate. Incubate shaking at room temperature for one hour.
7. Remove lysate and wash 4 times with TBST. Transfer freshly diluted anti-Ptyr antibody to ELISA plate at 100 μL per well. Incubate shaking at room temperature for 30 minutes in the presence of the anti-Ptyr antiserum (1:3000 dilution in TBST).
8. Remove the anti-Ptyr antibody and wash 4 times with TBST. Transfer the freshly diluted TAGO anti-rabbit IgG antibody to the ELISA plate at 100 μL per well. Incubate shaking at room temperature for 30 minutes (anti-rabbit IgG antibody: 1:3000 dilution in TBST).
9. Remove TAGO detection antibody and wash 4 times with TBST. Transfer freshly prepared ABTS/H2O2 solution to ELISA plate, 100 μL per well. Incubate shaking at room temperature for 20 minutes. (ABTS/H2O2 solution: 1.0 μL 30% H2O2 in 10 mL ABTS stock).
10. Stop reaction by adding 50 μL 5N H2SO4 (optional), and determine O.D. at 410 nm.
11. The maximal phosphotyrosine signal is determined by subtracting the value of the negative controls from the positive controls. The percent inhibition of phosphotyrosine content for extract-containing wells is then calculated, after subtraction of the negative controls.

The mark [1] stands for this setting: Table 5, in vitro kinase activity, read-out: EGFr biochem IC50.
[2] abbreviates: Table 5, in vitro kinase activity, read-out: PDGFr biochem IC50.
Where [3] appears, read: Table 4, in vitro kinase activity, read-out: bio EGFr IC50.
[4] abbreviates: Table 4, in vitro kinase activity, read-out: bio PDGFr IC50.
[5] abbreviates: Table 7, in vitro kinase activity, read-out: EGFr biochem IC50.

The structures appear in SMILES notation. Read-outs that look alike come from different tables or passages of the source.

Broadly, the IC50 is the concentration that gives 50% inhibition.

Sequence of EGFR (P00533 25-1210): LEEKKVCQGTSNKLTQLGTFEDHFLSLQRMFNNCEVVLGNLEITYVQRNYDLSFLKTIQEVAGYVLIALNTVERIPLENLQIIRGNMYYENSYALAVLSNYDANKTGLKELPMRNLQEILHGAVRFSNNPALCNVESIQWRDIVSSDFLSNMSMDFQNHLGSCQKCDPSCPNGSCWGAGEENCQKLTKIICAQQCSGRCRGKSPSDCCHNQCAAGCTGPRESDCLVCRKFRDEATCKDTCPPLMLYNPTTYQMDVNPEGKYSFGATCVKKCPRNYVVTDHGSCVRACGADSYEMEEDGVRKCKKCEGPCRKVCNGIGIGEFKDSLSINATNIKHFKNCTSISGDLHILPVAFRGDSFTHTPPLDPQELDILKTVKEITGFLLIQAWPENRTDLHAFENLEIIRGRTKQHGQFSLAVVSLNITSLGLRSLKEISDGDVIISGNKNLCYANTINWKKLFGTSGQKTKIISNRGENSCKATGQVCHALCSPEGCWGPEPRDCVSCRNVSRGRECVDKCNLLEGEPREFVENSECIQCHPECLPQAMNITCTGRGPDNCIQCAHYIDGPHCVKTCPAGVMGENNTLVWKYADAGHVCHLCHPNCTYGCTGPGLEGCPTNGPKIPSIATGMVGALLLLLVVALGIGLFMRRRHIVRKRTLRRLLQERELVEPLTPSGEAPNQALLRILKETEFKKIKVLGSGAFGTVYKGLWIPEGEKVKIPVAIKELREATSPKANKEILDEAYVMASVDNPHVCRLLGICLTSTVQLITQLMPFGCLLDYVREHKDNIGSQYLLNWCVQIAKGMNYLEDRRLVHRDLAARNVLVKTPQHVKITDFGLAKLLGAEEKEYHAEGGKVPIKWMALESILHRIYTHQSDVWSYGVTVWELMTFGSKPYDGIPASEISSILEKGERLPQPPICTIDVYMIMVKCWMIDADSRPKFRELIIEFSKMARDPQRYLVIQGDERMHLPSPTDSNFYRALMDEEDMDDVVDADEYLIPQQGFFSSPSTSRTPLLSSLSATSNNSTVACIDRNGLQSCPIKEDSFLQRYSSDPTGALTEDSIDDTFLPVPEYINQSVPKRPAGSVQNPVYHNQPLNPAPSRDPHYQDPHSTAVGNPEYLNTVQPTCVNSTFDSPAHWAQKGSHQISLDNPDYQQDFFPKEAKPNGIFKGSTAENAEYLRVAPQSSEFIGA
Sequence of PDGFR (P09619 33-1106): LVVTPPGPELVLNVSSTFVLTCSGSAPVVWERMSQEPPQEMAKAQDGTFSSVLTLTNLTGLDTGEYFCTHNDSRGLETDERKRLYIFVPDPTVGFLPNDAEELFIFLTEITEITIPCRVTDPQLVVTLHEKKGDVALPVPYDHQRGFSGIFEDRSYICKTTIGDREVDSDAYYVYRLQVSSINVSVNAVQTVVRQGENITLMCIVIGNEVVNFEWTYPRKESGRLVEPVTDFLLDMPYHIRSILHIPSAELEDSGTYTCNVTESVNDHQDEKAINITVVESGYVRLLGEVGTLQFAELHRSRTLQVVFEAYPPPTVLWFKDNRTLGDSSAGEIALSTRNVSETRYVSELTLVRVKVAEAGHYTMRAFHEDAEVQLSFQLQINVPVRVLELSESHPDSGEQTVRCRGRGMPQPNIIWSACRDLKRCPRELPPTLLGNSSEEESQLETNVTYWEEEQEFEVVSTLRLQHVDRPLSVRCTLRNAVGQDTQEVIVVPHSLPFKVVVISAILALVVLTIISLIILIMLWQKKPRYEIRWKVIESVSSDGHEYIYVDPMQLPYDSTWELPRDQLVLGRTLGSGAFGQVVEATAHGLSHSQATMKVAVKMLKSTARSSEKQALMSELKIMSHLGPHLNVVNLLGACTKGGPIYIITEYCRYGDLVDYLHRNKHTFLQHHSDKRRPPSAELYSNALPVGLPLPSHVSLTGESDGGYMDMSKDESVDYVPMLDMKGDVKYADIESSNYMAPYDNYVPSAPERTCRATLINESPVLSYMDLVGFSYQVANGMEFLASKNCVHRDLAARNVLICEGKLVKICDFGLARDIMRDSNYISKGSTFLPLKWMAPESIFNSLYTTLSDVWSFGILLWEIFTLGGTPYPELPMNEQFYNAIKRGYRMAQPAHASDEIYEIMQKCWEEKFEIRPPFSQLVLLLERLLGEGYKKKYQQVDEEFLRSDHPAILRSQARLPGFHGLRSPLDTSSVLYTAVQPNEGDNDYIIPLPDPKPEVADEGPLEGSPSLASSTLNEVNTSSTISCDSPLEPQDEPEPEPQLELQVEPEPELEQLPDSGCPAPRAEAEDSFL
T1 sequence (P04626 676-1255 limits assumed): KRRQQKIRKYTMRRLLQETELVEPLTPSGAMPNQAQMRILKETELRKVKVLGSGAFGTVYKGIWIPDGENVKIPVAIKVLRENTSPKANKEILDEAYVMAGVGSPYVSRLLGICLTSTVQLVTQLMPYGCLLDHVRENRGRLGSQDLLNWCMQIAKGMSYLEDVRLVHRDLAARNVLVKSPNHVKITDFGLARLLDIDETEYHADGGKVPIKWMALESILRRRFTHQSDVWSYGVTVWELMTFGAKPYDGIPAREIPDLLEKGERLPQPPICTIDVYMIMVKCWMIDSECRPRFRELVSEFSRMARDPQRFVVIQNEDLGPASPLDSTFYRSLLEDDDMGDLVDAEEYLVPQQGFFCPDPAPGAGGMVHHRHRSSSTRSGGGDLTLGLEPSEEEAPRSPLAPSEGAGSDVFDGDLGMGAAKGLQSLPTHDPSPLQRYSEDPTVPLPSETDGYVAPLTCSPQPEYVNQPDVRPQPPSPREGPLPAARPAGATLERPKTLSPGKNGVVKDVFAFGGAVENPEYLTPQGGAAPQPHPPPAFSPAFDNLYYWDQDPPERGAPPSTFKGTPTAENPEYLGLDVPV

For `CC(C)(C)c1cc(CC2C(=O)Nc3ccc(Cl)cc32)cc(Br)c1O` (racemic) [AAI-28, 3-(3-Bromo-5-tert-butyl-4-hydroxybenzyl)-5-chloro-1,3-dihydroindol-2-one], the values for the IC50 at EGFR (setting [1]), at PDGFR (setting [2]) and on Her2 (Table 5) were more than 100 µM, more than 100 µM and 48 µM, respectively.

As to `COc1ccc2c(c1)NC(=O)C2Cc1ccc(OC)c(-c2ccsc2)c1` (stereo not drawn) [AAI-1, 6-Methoxy-3-(4-methoxy-3-thiophen-3-ylbenzyl)-1,3-dihydroindol-2-one], the IC50 on EGFR (setting [1]), on PDGFR (setting [2]) and at Her2 (Table 5) was more than 100 µM each time.

In the case of `O=C(Nc1ccc2c(c1)NC(=O)C2Cc1cc(Cl)cc(Cl)c1O)C1CCCC1` (stereo not drawn) [AAI-2, Cyclopentanecarboxylic Acid [3-(3,5-Dichloro-2-hydroxybenzyl)-2-oxo-2,3-dihydro-1H-indol-6-yl]-amide], the IC50 at EGFR (setting [1]) is more than 100 µM; at PDGFR (setting [2]) it was more than 100 µM; against Her2 (Table 5), 50.5 µM.

Regarding `O=C(Nc1ccc2c(c1)NC(=O)C2Cc1cc(Cl)ccc1O)C1CCCC1` (stereo not drawn) [AAI-3, Cyclopentanecarboxylic Acid [3-(5-Chloro-2-hydroxybenzyl)-2-oxo-2,3-dihydro-1H-indol-6-yl]-amide], the IC50 at EGFR (setting [1]), on PDGFR (setting [2]) and at Her2 (Table 5) was more than 100 µM each time.

In the case of `COc1ccc(-c2cc(CC3C(=O)Nc4ccccc43)c(O)cc2OC)cc1` (stereo not drawn) [AAI-4, 3-(4-Hydroxy-6,4′-dimethoxybiphenyl-3-ylmethyl)-1,3-dihydroindol-2-one], the IC50 on EGFR (setting [1]), on PDGFR (setting [2]) and at Her2 (Table 5) was more than 100 µM in each case.

For the compound `O=C1Nc2cccc(CCO)c2C1Cc1ccc(Br)cc1` (stereo not drawn) [AAI-14, 3-(4-Bromobenzyl)-4-(2-hydroxyethyl)-1,3-dihydroindol-2-one], the IC50 on EGFR (setting [1]), on PDGFR (setting [2]) and on Her2 (Table 5) was more than 100 µM each time.

For `CC(C)c1cc(CC2C(=O)Nc3ccc(Cl)cc32)cc(C(C)C)c1OCCN1CCOCC1` (stereo not drawn) [AAI-15, 5-Chloro-3-[3,5-diisopropyl-4-(2-morpholin-4-ylethoxy)-benzyl]-1,3-dihydroindol-2-one], the half-inhibitory concentration (IC50) at EGFR (setting [1]), on PDGFR (setting [2]) and against Her2 (Table 5) was more than 100 µM in each case.

Turning to `Cc1[nH]c(CC2C(=O)Nc3ccc(Br)cc32)c(C)c1CCCN(C)C` (stereo not drawn) [AAI-19, 5-Bromo-3-[4-(3-dimethylaminopropyl)-3,5-dimethyl-1H-pyrrol-2-ylmethyl]-1,3-dihydroindol-2-one], the IC50 on EGFR (setting [1]) was more than 100 µM; at PDGFR (setting [2]), 0.25 µM; against Her2 (Table 5), more than 100 µM.

For the compound `O=C1Nc2cc(-c3ccccc3)ccc2C1Cc1cc(Br)ccc1O` (stereo not drawn) [AAI-26, 3-(5-Bromo-2-hydroxybenzyl)-6-phenyl-1,3-dihydroindol-2-one], the half-inhibitory concentration (IC50) at EGFR (setting [1]) is more than 100 µM; on PDGFR (setting [2]) it was more than 100 µM; at Her2 (Table 5) it was 67.6 µM.

For `COc1ccc(C=C2C(=O)Nc3cc(-c4cccnc4)ccc32)cc1-c1cccs1` [AHI-1, 3-(4-Methoxy-3-thiophen-2-yl-benzylidene)-6-pyridin-3-yl-1,3-dihydroindol-2-one], the IC50 at EGFR (setting [3]), on PDGFR (setting [4]) and at Her2 (Table 4) was more than 100 µM each time.

Turning to `O=C1Nc2cc(-c3cccnc3)ccc2C1=Cc1ccccc1O` [AHI-2, 3-(2-Hydroxybenzylidene)-6-pyridin-3-yl-1,3-dihydroindol-2-one], the IC50 was more than 100 µM on EGFR (setting [3]), 49.9 µM at PDGFR (setting [4]) and 31.5 µM against Her2 (Table 4).

With `COc1ccc(C=C2C(=O)Nc3cc(-c4cccs4)ccc32)cc1-c1cccs1` [AHI-3, 3-(4-Methoxy-3-thiophen-2-yl-benzylidene)-6-thiophen-2-yl-1,3-dihydroindol-2-one], the IC50 at EGFR (setting [3]), at PDGFR (setting [4]) and against Her2 (Table 4) was more than 100 µM each time.

Consider `O=C1Nc2cc(-c3cccs3)ccc2C1=Cc1ccccc1O` [AHI-4, 3-(2-Hydroxybenzylidene)-6-thiophen-2-yl-1,3-dihydroindol-2-one], for which the IC50 at EGFR (setting [3]), on PDGFR (setting [4]) and against Her2 (Table 4) was more than 100 µM throughout.

Turning to `COc1ccc(C=C2C(=O)Nc3cc(-c4ccsc4)ccc32)cc1-c1cccs1` [AHI-5, 3-(4-Methoxy-3-thiophen-2-yl-benzylidene)-6-thiophen-3-yl-1,3-dihydroindol-2-one], the IC50 at EGFR (setting [3]), on PDGFR (setting [4]) and at Her2 (Table 4) was more than 100 µM throughout.

On to `O=C1Nc2cc(-c3ccsc3)ccc2C1=Cc1ccccc1O` [AHI-6, 3-(2-Hydroxybenzylidene)-6-thiophen-3-yl-1,3-dihydroindol-2-one], for which the IC50 at EGFR (setting [3]) is more than 100 µM; on PDGFR (setting [4]) it was 76.6 µM; at Her2 (Table 4), 57.3 µM.

Regarding `Cc1[nH]c(C=C2C(=O)Nc3cc(-c4cccnc4)ccc32)c(C)c1CCCN(C)C` [AHI-7, 3-[4-(3-Dimethylaminopropyl)-3,5-dimethyl-1H-pyrrol-2-ylmethylene]-6-pyridin-3-yl-1,3-dihydroindol-2-one], the IC50 on EGFR (setting [3]) stood at 12.1 µM; at PDGFR (setting [4]) it was 0.02 µM; against Her2 (Table 4), 16.8 µM.

Consider `COCCc1cccc2c1CC(=O)N2` [IN-018, 4-(2-Methoxy-ethyl)-1,3-dihydro-indol-2-one], for which the IC50 on EGFR (setting [5]) and on Her2 (Table 7) was more than 100 µM each time.

Regarding `CCOCCc1cccc2c1CC(=O)N2` [IN-019, 4-(2-Ethoxy-ethyl)-1,3-dihydro-indol-2-one], the IC50 on EGFR (setting [5]) and at Her2 (Table 7) was more than 100 µM throughout.

As to `O=C1Cc2c(CCOc3cncc(Cl)c3)cccc2N1` [IN-021, 4-[2-(5-Chloro-pyridin-3-yloxy)-ethyl]1,3-dihydro-indol-2-one], the IC50 at EGFR (setting [5]) and against Her2 (Table 7) was more than 100 µM throughout.
